Laboratory results: ChEMBL document CHEMBL4480432, “Expansion of a novel lead targeting M. tuberculosis DHFR as antitubercular agents” (Bioorg Med Chem, 2019)
Converted amounts (≈) assume the structure as drawn.

The compounds below were run on Mycobacterium tuberculosis (assay: microbe, parasite or virus in culture). Settings: H37Rv ATCC 27294, 168 h.
Description: Antitubercular activity against Mycobacterium tuberculosis H37Rv ATCC 27294 after 7 days by microplate alamar blue method

Q: With CC(=O)c1c(C)n(Cc2ccccc2)c2ccc(OCc3cn(-c4ccc(C)c(C)c4)nn3)cc12 as the compound, how does the MIC read?
A: The MIC was 53.8 µM (≈ 25 µg/mL).

Q: For CC(=O)c1c(C)n(Cc2ccccc2)c2ccc(OCc3cn(-c4ccc(F)cc4)nn3)cc12, which MIC is on record?
A: The MIC was 55 µM (≈ 25 µg/mL).

Q: CC(=O)c1c(C)n(Cc2ccccc2)c2ccc(OCc3cn(-c4ccc(C)cc4)nn3)cc12 was tested. Which MIC did it give?
A: The MIC was 55.5 µM (≈ 25 µg/mL).

Q: CO[C@H]1/C=C/O[C@@]2(C)Oc3c(C)c(O)c4c(O)c(c(/C=N/N5CCN(C)CC5)c(O)c4c3C2=O)NC(=O)/C(C)=C\C=C\[C@H](C)[C@H](O)[C@@H](C)[C@@H](O)[C@@H](C)[C@H](OC(C)=O)[C@@H]1C [RIFAMPIN] was tested. Which MIC did it give?
A: Its MIC is 0.25 µM (≈ 0.206 µg/mL).

Q: For CC(=O)c1c(C)n(Cc2ccccc2)c2ccc(OCc3cn(-c4ccc(C(F)(F)F)cc4)nn3)cc12, which MIC is on record?
A: Its MIC is 49.5 µM (≈ 25 µg/mL).

Q: With CCOC(=O)c1c(C)n(Cc2ccccc2)c2ccc(OCc3cn(-c4ccccc4OC)nn3)cc12 as the compound, how does the MIC read?
A: Its MIC is 50.4 µM (≈ 25 µg/mL).

Q: For CCOC(=O)c1c(C)n(Cc2ccccc2)c2ccc(OCc3cn(-c4ccc(CC)cc4)nn3)cc12, which MIC is on record?
A: Its MIC is 50.6 µM (≈ 25 µg/mL).

Q: How did the MIC turn out when CCOC(=O)c1c(C)n(Cc2ccccc2)c2ccc(OCc3cn(-c4ccc(F)cc4)nn3)cc12 was run?
A: The MIC was 51.6 µM (≈ 25 µg/mL).

Q: COc1ccccc1-n1cc(COc2ccc3c(c2)c(C(C)=O)c(C)n3Cc2ccccc2)nn1 was tested. Which MIC did it give?
A: Its MIC is 53.6 µM (≈ 25 µg/mL).

Q: For CC(=O)c1c(C)n(Cc2ccccc2)c2ccc(OCc3cn(-c4ccc(Cl)cc4)nn3)cc12, which MIC is on record?
A: The MIC was 53.1 µM (≈ 25 µg/mL).

Q: How did the MIC turn out when O=C(O)c1cn(C2CC2)c2cc(N3CCNCC3)c(F)cc2c1=O [CIPROFLOXACIN] was run?
A: The MIC was 4.7 µM (≈ 1.56 µg/mL).

Q: How did the MIC turn out when CCOC(=O)c1c(C)n(Cc2ccccc2)c2ccc(OCc3cn(-c4ccc(Br)cc4)nn3)cc12 was run?
A: Its MIC is 45.9 µM (≈ 25.1 µg/mL).

Q: With CC(=O)c1c(C)n(Cc2ccccc2)c2ccc(OCc3cn(-c4ccc([N+](=O)[O-])cc4)nn3)cc12 as the compound, how does the MIC read?
A: Its MIC is 12.9 µM (≈ 6.21 µg/mL).

Q: Which MIC does the source give for CCOC(=O)c1c(C)n(Cc2ccccc2)c2ccc(OCc3cn(-c4ccc(C(F)(F)F)cc4)nn3)cc12 here?
A: Its MIC is 46.8 µM (≈ 25 µg/mL).

Q: Which MIC does the source give for CCOC(=O)c1c(C)n(Cc2ccccc2)c2ccc(OCc3cn(-c4cccc(Cl)c4)nn3)cc12 here?
A: Its MIC is 50.2 µM (≈ 25.1 µg/mL).

Q: With CCc1ccc(-n2cc(COc3ccc4c(c3)c(C(C)=O)c(C)n4Cc3ccccc3)nn2)cc1 as the compound, how does the MIC read?
A: The MIC was 26.9 µM (≈ 12.5 µg/mL).

Q: Which MIC does the source give for CCOC(=O)c1c(C)n(Cc2ccccc2)c2ccc(OCc3cn(-c4ccc(C)cc4)nn3)cc12 here?
A: The MIC was 26 µM (≈ 12.5 µg/mL).

Q: With NNC(=O)c1ccncc1 [ISONIAZID] as the compound, how does the MIC read?
A: The MIC was 0.73 µM (≈ 0.1 µg/mL).

Q: Which MIC does the source give for CC[C@@H](CO)NCCN[C@@H](CC)CO [ETHAMBUTOL] here?
A: Its MIC is 16.5 µM (≈ 3.37 µg/mL).

Q: How did the MIC turn out when CC(=O)c1c(C)n(Cc2ccccc2)c2ccc(OCc3cn(-c4cccc(Cl)c4)nn3)cc12 was run?
A: Its MIC is 6.64 µM (≈ 3.13 µg/mL).

Q: With CC(=O)c1c(C)n(Cc2ccccc2)c2ccc(OCc3cn(-c4ccc(C#N)cc4)nn3)cc12 as the compound, how does the MIC read?
A: Its MIC is 54.2 µM (≈ 25 µg/mL).

Q: With CCOC(=O)c1c(C)n(Cc2ccccc2)c2ccc(OCc3cn(-c4ccc(C#N)cc4)nn3)cc12 as the compound, how does the MIC read?
A: The MIC was 12.7 µM (≈ 6.25 µg/mL).

Q: CN(Cc1cnc2nc(N)nc(N)c2n1)c1ccc(C(=O)N[C@@H](CCC(=O)O)C(=O)O)cc1 [METHOTREXATE] was tested. Which MIC did it give?
A: The MIC was 3.38 µM (≈ 1.54 µg/mL).

Q: Which MIC does the source give for CCOC(=O)c1c(C)n(Cc2ccccc2)c2ccc(OCc3cn(-c4ccc([N+](=O)[O-])cc4)nn3)cc12 here?
A: The MIC was 48.9 µM (≈ 25 µg/mL).

What follows are compounds tested on DHFR (human versus Mycobacterium tuberculosis H37Rv) (assay: Selectivity index, ratio of IC50 for human DHFR to IC50 for Mycobacterium tuberculosis H37Rv DHFR expressed in Escherichia coli BL21(DE3)). Settings: human and Mycobacterium tuberculosis H37Rv; read-out: Ratio IC50.
Assay type: toxicity

Q: For CC(=O)c1c(C)n(Cc2ccccc2)c2ccc(OCc3cn(-c4cccc(Cl)c4)nn3)cc12, which selectivity ratio is on record?
A: Its selectivity ratio is 4.17.

The compounds below were run against T1, Dihydrofolate reductase (Homo sapiens, UniProt P00374) (assay: Inhibition of human DHFR assessed as reduction in consumption of NADPH using DHF as substrate preincubated for 1 min followed by DHF addition and measured for 2 mins by spectrophotometric method). Settings: not given.
T1 sequence (P00374 whole entry): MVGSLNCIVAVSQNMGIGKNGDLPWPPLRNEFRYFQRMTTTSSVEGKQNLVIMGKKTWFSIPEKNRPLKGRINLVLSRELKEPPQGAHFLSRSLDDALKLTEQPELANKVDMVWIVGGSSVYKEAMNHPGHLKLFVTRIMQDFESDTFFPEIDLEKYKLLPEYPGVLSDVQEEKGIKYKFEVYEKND

Q: CC(=O)c1c(C)n(Cc2ccccc2)c2ccc(OCc3cn(-c4cccc(Cl)c4)nn3)cc12 was tested. Which IC50 did it give?
A: Its IC50 is 180 µM.

The compounds below were run against T2, Dihydrofolate reductase (Mycobacterium tuberculosis, UniProt P9WNX1) (assay: Inhibition of Mycobacterium tuberculosis H37Rv DHFR expressed in Escherichia coli BL21(DE3) assessed as reduction in consumption of NADPH using DHF as substrate preincubated for 1 min followed by DHF addition and measured for 2 mins by spectrophotometric method). Settings: not given.
T2 sequence (P9WNX1 whole entry): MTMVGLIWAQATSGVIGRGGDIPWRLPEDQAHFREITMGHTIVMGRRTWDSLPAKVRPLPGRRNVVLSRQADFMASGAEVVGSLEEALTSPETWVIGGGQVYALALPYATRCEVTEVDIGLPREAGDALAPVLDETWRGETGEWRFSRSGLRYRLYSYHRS

Q: Which IC50 does the source give for CC(=O)c1c(C)n(Cc2ccccc2)c2ccc(OCCCC(=O)O)cc12 here?
A: The IC50 was 25 µM.

Q: CC(=O)c1c(C)n(Cc2ccccc2)c2ccc(OCc3cn(-c4cccc(Cl)c4)nn3)cc12 was tested. Which IC50 did it give?
A: Its IC50 is 43.1 µM.
